Like-named read-outs stand apart in the source and are kept apart here.

The data set can be described thus: log P by HPLC on reversed-phase column (EEC directive 79/831 Annex V.A8). The format is physicochemical. To be noted: for log p: HPLC on reversed-phase column (footnote a); for log p a): HPLC on reversed-phase column. The procedure:
a) The determination of the [M+H]^+ by LC-MS in the acidic range was effected at pH 2.7, with acetonitrile (containing 0.1% formic acid) and water as eluents; linear gradient from 10% acetonitrile to 95% acetonitrile, instrument: Agilent 1100 LC system, Agilent MSD system, HTS PAL.
The log P values reported in the tables and preparation examples above were determined in accordance with EEC directive 79/831 Annex V.A8 by HPLC (High Performance Liquid Chromatography) using a reversed-phase column (C18). Temperature 43° C.

Regarding `O=C(COc1ccccc1)c1c([O-])n(Cc2ccc(Cl)nc2)c2cccc[n+]12` [Example I-1-007], the log p is given as 2.2.
Usually chromatographic logP stands for lipophilicity estimated from chromatographic retention. High values mean a more lipophilic compound, low ones a more hydrophilic compound. Turning to `CCNCC(=O)c1c([O-])n(Cc2cnc(Cl)s2)c2cccc[n+]12` [Example I-1-021, 1-[(2-Chloro-1,3-thiazol-5-yl)methyl]-3-(N-ethylglycyl)-1H-imidazo[1,2-a]pyridin-4-ium-2-olate], the chromatographic logP turned out to be 0.57. Also, the chromatographic logP (pH 2.7) came out at 0.57.
In the case of `CCNCC(=O)c1c([O-])n(Cc2ccc(Cl)nc2)c2cccc[n+]12` [Example I-1-024], the log p is 0.42.
In the case of `COC(=O)COCC(=O)c1c([O-])n(Cc2ccc(Cl)nc2)c2cccc[n+]12` [Example I-1-030], the log p is listed as 1.31.
For the compound `CNC(=O)c1ccn(CC(=O)c2c([O-])n(Cc3cnc(Cl)s3)c3cccc[n+]23)n1` [Example I-1-048], the log p is on record as 1.27.
`O=C(Cn1ccnc1)c1c([O-])n(Cc2cnc(Cl)s2)c2cccc[n+]12` [Example I-1-050] gave a log p of 0.46.
The same measure, in the same setting: with `CNCC(=O)c1c([O-])n(Cc2cnc(Cl)s2)c2cccc[n+]12` [Example I-1-058] the figure was 0.31; with `O=C(CCl)c1c([O-])n(Cc2ccc(Cl)nc2)c2cc(C(F)(F)F)cc[n+]12` [Example I-1-063], 2.52.
`N#Cc1cc[n+]2c(C(=O)CCl)c([O-])n(Cc3ccc(Cl)nc3)c2c1` [Example I-1-067] returned a log p of 1.83.
Same read-out and setting: with `COCC(=O)c1c([O-])n(Cc2ccc(Cl)nc2)c2cc(C(F)(F)F)cc[n+]12` [Example I-1-069] the figure was 1.99; with `O=C(COc1cccc(Cl)c1)c1c([O-])n(Cc2cnc(Cl)s2)c2cccc[n+]12` [Example I-1-073], 2.87; with `O=C(COc1ccc(Cl)cc1)c1c([O-])n(Cc2cnc(Cl)s2)c2cccc[n+]12` [Example I-1-074], 2.84.
`O=C(CCl)c1c([O-])n(Cc2ccc(Cl)nc2)c2c(Cl)ccc[n+]12` [Example I-1-090] came in with a log p of 1.99.
Consider `Cc1ccc[n+]2c(C(=O)Cn3cc(Cl)cn3)c([O-])n(Cc3cnc(Cl)s3)c12` [Example I-1-095], for which the log p is 2.27.
Take `O=C(CCl)c1c([O-])n(Cc2ccc(Cl)nc2)c2ccc(F)c[n+]12` [Example I-1-099]: the log p was determined as 1.78.
Same read-out and setting: for `O=C(CCl)c1c([O-])n(Cc2ccc(Cl)nc2)c2c(F)ccc[n+]12` [Example I-1-100] the value was 1.81.
`O=C(Cn1cccn1)c1c([O-])n(Cc2ccc(Cl)nc2)c2cc(C(F)(F)F)cc[n+]12` [Example I-1-102]: the log p was found to be 2.08.
Still for that read-out and setting: for `Cc1ccc2n(Cc3ccc(Cl)nc3)c([O-])c(C(=O)Cn3cccn3)[n+]2c1` [Example I-1-104] the value was 1.63; for `O=C(Cn1cccn1)c1c([O-])n(Cc2ccc(Cl)nc2)c2c(F)ccc[n+]12` [Example I-1-105], 1.55; for `O=C(CCl)c1c([O-])n(Cc2cnc(Cl)s2)c2cc(Cl)cc[n+]12` [Example I-1-120], 2.17.
`COCC(=O)c1c([O-])n(Cc2cnc(Cl)s2)c2cc(Cl)cc[n+]12` [Example I-1-123] returned a log p of 1.90.
The compound `O=C(NC1CC1)c1c([O-])n(Cc2ccc(Cl)nc2)c2c(F)ccc[n+]12` [Example I-1-127] showed a log p of 1.82.
Turning to `COC(=O)c1c([O-])n(Cc2ccc(Cl)nc2)c2c(Cl)ccc[n+]12` [Example I-1-130], the log p stood at 1.56.
Still for that read-out and setting: for `COC(=O)c1c([O-])n(Cc2ccc(Cl)nc2)c2cc(C(F)(F)F)cc[n+]12` [Example I-1-132] the value was 1.93.
Still for that read-out and setting: for `CCNC(=O)c1c([O-])n(Cc2cnc(Cl)s2)c2cccc[n+]12` [Example I-1-134] the value was 1.58.
Same read-out and setting: for `O=C(NCCc1ccc(Cl)cc1)c1c([O-])n(Cc2cnc(Cl)s2)c2cccc[n+]12` [Example I-1-139] the value was 3.
Compound `O=C(NC1CC1)c1c([O-])n(Cc2cnc(Cl)s2)c2c(Cl)ccc[n+]12` [Example I-1-140] returned a log p of 2.01.
Still for that read-out and setting: with `O=C(NC1CC1)c1c([O-])n(Cc2cnc(Cl)s2)c2cc(C(F)(F)F)cc[n+]12` [Example I-1-141] the figure was 2.38; with `O=C(NCc1ccc(Cl)cc1)c1c([O-])n(Cc2cnc(Cl)s2)c2cccc[n+]12` [Example I-1-149], 2.86.
Take `O=C(Nc1ccc(Cl)cc1)c1c([O-])n(Cc2cnc(Cl)s2)c2cccc[n+]12` [Example I-1-150]: the log p amounted to 3.39.
Compound `O=C(Nc1ccc(Cl)nc1)c1c([O-])n(Cc2cnc(Cl)s2)c2cccc[n+]12` [Example I-1-153] registered a log p of 3.06.
The compound `COC(=O)c1c([O-])n(Cc2ccc(Cl)nc2)c2c(F)cc(F)c[n+]12` [Example I-1-156] gave a log p of 1.56.
As for `O=C(CCl)c1c([O-])n(Cc2cncc(Cl)c2)c2cccc[n+]12` [Example I-1-162], the log p came out at 1.53.
In turn, `O=C(CCl)c1c([O-])n(Cc2ccc(C(F)(F)F)nc2)c2cccc[n+]12` [Example I-1-163] came in with a log p of 1.9.
Same read-out and setting: for `COC(=O)c1c([O-])n(Cc2ccc(Cl)nc2)c2c(C)ccc[n+]12` [Example I-1-183] the value was 1.66; for `O=C(NC1CC1)c1c([O-])n(Cc2cnc(Cl)s2)c2cc(Cl)cc[n+]12` [Example I-1-184], 2.14.
Take `Cc1ccc[n+]2c(C(=O)Nc3ccc(Cl)cc3)c([O-])n(Cc3ccc(Cl)nc3)c12` [Example I-1-187]: the log p was 3.41.
The same measure, in the same setting: with `COC(=O)c1c([O-])n(Cc2ccc(Cl)nc2)c2c(OC(F)(F)F)ccc[n+]12` [Example I-1-189] the figure was 1.84; with `COC(=O)c1c([O-])n(Cc2ccc(Cl)nc2)c2c(SC)ccc[n+]12` [Example I-1-194], 1.64.
In the case of `O=C(NC1CC1)c1c([O-])n(Cc2ccc(Cl)nc2)c2c(F)cc(F)c[n+]12` [Example I-1-197], the log p was 1.99.
On to `CSc1ccc[n+]2c(C(=O)NC3CC3)c([O-])n(Cc3ccc(Cl)nc3)c12` [Example I-1-204], for which the “log p a)” value is recorded as 2.05.
On the same count and under the same terms, for `Cc1cnc(Cn2c([O-])c(C(=O)NCC(F)(F)F)[n+]3ccccc23)cn1` [Example I-1-242] the value was 1.57.
As for `Cc1ccc[n+]2c(C(=O)NC3CCCCC3)c([O-])n(Cc3ccc(Cl)nc3)c12` [Example I-1-253], the “log p a)” value was determined as 2.72.
Take `Cc1ccc[n+]2c(C(=O)NCC3CCCCC3)c([O-])n(Cc3ccc(Cl)nc3)c12` [Example I-1-255]: the “log p a)” value was found to be 3.21.
Consider `Cc1ccc[n+]2c(C(=O)NCC3CCCC3)c([O-])n(Cc3ccc(Cl)nc3)c12` [Example I-1-256], for which the “log p a)” value is listed as 2.8.
For the compound `Cc1ccc[n+]2c(C(=O)NC3(C#N)CCCCC3)c([O-])n(Cc3ccc(Cl)nc3)c12` [Example I-1-263], the “log p a)” value came to 2.62.
Still for that read-out and setting: with `Cc1ccc[n+]2c(C(=O)Nc3ccccn3)c([O-])n(Cc3ccc(Cl)nc3)c12` [Example I-1-264] the figure was 1.68.
Same read-out and setting: with `N#CC1(NC(=O)c2c([O-])n(Cc3cnc(Cl)s3)c3cccc[n+]23)CC1` [Example I-1-270] the figure was 1.58; with `O=C(c1c([O-])n(Cc2cnc(Cl)s2)c2cccc[n+]12)N1CCCC1` [Example I-1-273], 1.52.
